Test results: publication PMC8041708, “Characterization of MK6240, a tau PET tracer, in autopsy brain tissue from Alzheimer’s disease cases” (European Journal of Nuclear Medicine and Molecular Imaging, 2020)
Where two headings read alike, the source gives them in different places.

How the values were obtained:
[1] = test system: ^18F-AV-1451 binding sites in AD brains; set-up: method as in Ni et al. (unpublished data); details: versus ^18F-AV-1451, ref Ni et al. (unpublished data), cited from earlier work
[2] = biological target: ^3H-MK6240 binding sites in the temporal cortex (Homo sapiens, UniProt P10636); assay: Competitive binding assay with ^3H-MK6240 (0.5 nM) on AD temporal cortex homogenates; details: for Fraction of sites with super-high affinity for the competitor (%): radioligand ^3H-MK6240, temporal cortex; for IC50: 2-site competition model, temporal cortex
^3H-MK6240 binding sites in the temporal cortex, sequence (P10636 623-695 limits assumed): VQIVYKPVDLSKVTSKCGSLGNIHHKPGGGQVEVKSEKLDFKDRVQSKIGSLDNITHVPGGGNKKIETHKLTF
Procedure: (§1) Frozen post-mortem tissue from eight AD and seven control brains from the Netherlands Brain Bank (NBB) was homogenized in phosphate buffer saline (PBS) with additional 0.1% bovine serum albumin (BSA; […]) and protease/phosphatase inhibitors (10 μL/mL).
Competitive binding assays with ^3H-MK6240 (0.5 nM) were carried out for 90 min at 37 °C on temporal cortex homogenates from two AD brains, in PBS + 0.1% BSA (pH 7.4), using increasing concentrations of unlabelled MK6240, unlabelled THK5117 or unlabelled AV-1451 (1.10^−14–1.10^−5 M). The binding assay was terminated as described above. The half-maximal […] concentration (IC50) was determined using GraphPad Prism software and data were analysed using a 2-site competition model.

AD tissue = details: ref [7], [21], cited from earlier work
[3] = test system: ^3H-THK5351 binding sites in the hippocampus; set-up: method as in Lemoine et al. [12]; details: ref Lemoine et al. [12], cited from earlier work; for Fraction of sites with super-high affinity for the competitor (%): radioligand ^3H-THK5351
[4] = test system: ^3H-AV-1451 binding sites; set-up: method as in Hostetler et al. [21]; details: ref Hostetler et al. [21]; cited from earlier work
[5] = test system: ^3H-THK5351 binding sites in the hippocampus; assay: Competitive binding assay with ^3H-THK5351 (1.5 nM) on AD hippocampus homogenates; set-up: species or system human
Procedure: as §1
Competitive binding assays were also carried out with ^3H-THK5351 (1.5 nM) in PBS + 0.1% BSA (pH 7.4) on hippocampus homogenates, using increasing concentrations of unlabelled MK6240 (1.10^−14–1.10^−5 M) in PBS + 0.1% BSA for 2 h at room temperature.

[6] = site 2, high affinity, read-out: IC50(High)
[7] = site 1, super-high affinity, read-out: IC50(supHigh)

SMILES: Fc1ccc(-c2ccc3c(c2)[nH]c2ccncc23)cn1 [AV-1451]
- Proportion of sites with high affinity for the competitor ([1]; frontal cortex): 61%
- Proportion of sites with high affinity for the competitor ([1]; temporal cortex of AD brains): 88%
- High affinity sites, fraction ([2]; ^3H-MK6240 competitions): 26%
- Fraction of sites with super-high affinity for the competitor (%) [2]: 74%
- IC50 [2, 6]: 2 nM
- Kd (AD tissue; unit inferred): 0.6 to 3.7 nM
- Low affinity sites, fraction ([3]; ^3H-THK5351 competitions): 65%
- Fraction of sites with super-high affinity for the competitor (%) [3]: 35%

SMILES: Nc1c(F)ccc2cnc(-n3ccc4ccncc43)cc12 [MK6240]
- Competition with ^3H-AV-1451 [4]: lack of competition
- High affinity sites, fraction ([2]; ^3H-MK6240 competitions): 42%
- Fraction of sites with super-high affinity for the competitor (%) [2]: 58%
- IC50 [2, 7]: 0.001 nM
- IC50 [2, 6]: 12 nM
- Fraction of sites with super-high affinity for the competitor (%) ([5]; radioligand ^3H-THK5351, hippocampus): 0%
- Competition with ^3H-THK5351 ([5]; unlabelled MK6240 1.10^-14-1.10^-5 M, hippocampus of three AD patients): did not compete

SMILES: CNc1ccc(-c2ccc3cc(OCC(O)CF)ccc3n2)cc1 (stereo not drawn) [THK5117]
- Low affinity sites, fraction ([2]; ^3H-MK6240 competitions): 63%
- Fraction of sites with super-high affinity for the competitor (%) [2]: 37%
- IC50 [2, 7]: 0.002 nM
- IC50 ([2]; site 2, low affinity, read-out: IC50(low)): 304 nM
- Kd (AD tissue): 2.2 nM
- High affinity sites, fraction ([3]; ^3H-THK5351 competitions): 54%
- Fraction of sites with super-high affinity for the competitor (%) [3]: 46%

SMILES: CNc1ccc(-c2ccc3cc(OC[C@H](O)CF)ccc3n2)cn1 [THK5351]
- High affinity sites, fraction ([3]; ^3H-THK5351 competitions): 38%
- Fraction of sites with super-high affinity for the competitor (%) [3]: 62%
